Several values for one entry are separate records, joined by “and”; a condition that tells them apart may be missing. Equal entries are not always repeated.
Tests used:
Sestrin1 = molecular target: T1, Sestrin1 (Homo sapiens, UniProt Q9Y6P5); test: Cellular thermal shift assay (CETSA), intracellular Sestrin1 in HEK-293T cells; type: cell-based; details: 30 min, leucine-starved HEK293T cells, read-out: increase of melting temperature of intracellular Sestrin1
T1 sequence (Q9Y6P5 67-492 limits assumed): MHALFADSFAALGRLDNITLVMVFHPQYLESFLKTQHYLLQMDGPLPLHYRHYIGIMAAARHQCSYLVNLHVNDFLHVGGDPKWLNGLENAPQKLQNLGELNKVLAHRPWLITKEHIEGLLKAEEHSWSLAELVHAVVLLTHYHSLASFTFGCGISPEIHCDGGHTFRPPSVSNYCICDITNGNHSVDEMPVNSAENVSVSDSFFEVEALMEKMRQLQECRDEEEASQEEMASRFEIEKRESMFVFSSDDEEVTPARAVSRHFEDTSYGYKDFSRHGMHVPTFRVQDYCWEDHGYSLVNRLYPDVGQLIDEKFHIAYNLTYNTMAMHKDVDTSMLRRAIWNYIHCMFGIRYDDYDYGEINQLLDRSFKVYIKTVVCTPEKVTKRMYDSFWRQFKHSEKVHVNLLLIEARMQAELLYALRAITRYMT
Protocol: (§1) Expression of flag-WDR24 allows for immunoprecipitation of the Sestrin2/GATOR2 complex from amino acid-starved cells with an anti-flag antibody. […] Finally, to determine whether Sestrins and the GATOR pathway are required for NV-5138 activity, HEK-293T cells null for all three Sestrin isoforms or the GATOR1 component Nprl3 were obtained.
(§2) CETSA was performed as previously described. […] Cells were then collected, centrifuged for 3 min at 300 g at room-temperature (RT), washed with PBS, centrifuged again, and finally resuspended in 1 ml of RT PBS containing EDTA-free protease-inhibitor tablets (Roche). 100 µl of each cell suspension was heated at the noted temperature for 3 min, samples were then placed on the bench at RT for 3 min before being flash-frozen in liquid nitrogen. To lyse the cells, samples were put through two cycles of freeze-thawing followed by centrifugation at 20,000 g for 20 min at 4 °C. 80 µl of the resulting supernatant was denatured and, resolved by SDS-PAGE. Membranes were imaged using the LI-COR imaging system. Antibodies used are listed in Supplementary Information.

Sestrin2 [1] = molecular target: T2, Sestrin2 (Homo sapiens, UniProt P58004); test: Isothermal titration calorimetry (ITC) on Sestrin2; type: binding; parameters: Full-length, codon-optimized human Sestrin2 was cloned into a pMAL6H -C5XT bacterial expression vector; His6-MBP (TEV-cleavable) (N, cleaved yes); made in house; host or cells: Escherichia coli LOBSTR (DE3); details: for Kd: estimated, Sestrin2 pre-exchanged with methionine
T2 sequence (P58004 1-480): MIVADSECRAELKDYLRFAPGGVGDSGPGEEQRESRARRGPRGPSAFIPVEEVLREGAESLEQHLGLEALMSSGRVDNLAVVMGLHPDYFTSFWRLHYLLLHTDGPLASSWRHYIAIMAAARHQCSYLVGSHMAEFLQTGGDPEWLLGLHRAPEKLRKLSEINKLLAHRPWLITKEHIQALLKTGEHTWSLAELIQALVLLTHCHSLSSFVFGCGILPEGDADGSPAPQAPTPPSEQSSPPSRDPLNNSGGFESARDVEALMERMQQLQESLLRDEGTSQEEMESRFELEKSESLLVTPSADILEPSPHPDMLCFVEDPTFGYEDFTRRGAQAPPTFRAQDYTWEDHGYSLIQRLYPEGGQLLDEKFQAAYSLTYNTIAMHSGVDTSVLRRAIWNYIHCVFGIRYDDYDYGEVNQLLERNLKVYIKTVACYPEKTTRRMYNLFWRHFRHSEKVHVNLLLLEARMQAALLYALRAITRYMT
Protocol: Details of NV-5138 synthesis and protein preparation for ITC can be found in Supplementary Information.
For this exchange procedure ion exchange chromatography was used using the following buffers:
Buffer-A: HEPES 20mM pH 7.4, βME 5mM, Buffer-B: HEPES 20mM pH 7.4, βME 5mM, Methionine 5mM, Buffer-C: HEPES 20mM pH 7.4, βME 5mM, NaCl 1M. Sestrin2 (6 mg) was diluted to 5ml with buffer-A, and loaded on a MonoQ HR 5/50 column equilibrated in buffer-A. The column was washed with 2-3 column volume (CV) of buffer-A followed by 130 ml of buffer-B. The protein was then eluted in steps of 300 mM, 500 mM, and 1 M NaCl in buffer-C. The protein eluted in the 300 mM NaCl fractions and was concentrated to 7.6 mg/ml.

Sestrin2 [2] = molecular target: T2, Sestrin2; test: Cellular thermal shift assay (CETSA), intracellular Sestrin2 in HEK-293T cells; type: cell-based; details: 30 min, leucine-starved HEK293T cells, read-out: increase of melting temperature of intracellular Sestrin2
Protocol: as §1, §2

mTORC1 = mTORC1 activation (phosphorylated S6K1 Thr389 immunoblot) in leucine-starved HEK-293T cells; type: cell-based, human
Protocol: as §1
All cell lines were cultured in DMEM supplemented with 10% FBS and maintained at 37 °C and 5% CO2. HEK-293T cells stably expressing Flag-WDR24 was generated as previously described. […] Details of reagent used for cell culture can be found in Supplementary Information.
Cell lysates were prepared as previously described. Lysates were cleared by centrifugation at 13,200 rpm at 4 °C for 8 min. For anti-FLAG IPs, the FLAG-M2 affinity gel was added to approximately 2 mg of lysates and incubated with rotation for 3 h at 4 °C. Following IP, the beads were washed one time with Triton wash buffer containing 500 mM NaCl. […] After compound incubation, IPs were collected by centrifugation. Immunoprecipitated proteins were denatured and, resolved by SDS-PAGE. Membranes were imaged using the LI-COR imaging system. Reagents and antibodies used are listed in Supplementary Information.

Structure (SMILES)	ΔTm at 300 µM (Sestrin1) [°C]	molar stoichiometry (ITC) (Sestrin2 [1])	Kd (Sestrin2 [1])	ΔTm at 300 µM (Sestrin2 [2]) [°C]	mTORC1 activation (pS6K1) (mTORC1; leucine-starved HEK-293T cells null for all three Sestrin isoforms)	mTORC1 activation (pS6K1) (mTORC1; leucine-starved HEK-293T cells null for the GATOR1 component Nprl3)	mTORC1 activation (pS6K1) (mTORC1; leucine-starved unedited HEK-293T cells)
CC(C)C[C@H](N)C(=O)O [Leucine, L-leucine, reference compound]	~2	1	1.6 µM and 1.55 µM	~2	refractory	refractory	
CC(C)(C[C@H](N)C(=O)O)C(F)F [NV-5138, (S)-2-amino-5,5-difluoro-4,4-dimethylpentanoic acid]	~2		1.5 µM and 1.49 µM	~2			activates mTORC1

From paper PMC6412019, “Discovery of NV-5138, the first selective Brain mTORC1 activator” (Scientific Reports, 2019)
